Test results taken from patent publication US8673882B2, “Inhibitors of autotaxin” (University of Tennessee Research Foundation, priority 2011, dated 2014).
“Also recorded” adds a separate entry of the source.

Test system: MM1 hepatocarcinoma cells
Experiment: Invasion of mesothelial cell monolayer by MM1 cells
Type: cell-based, rat
Conditions: with LPC; FIG. 12 panel E
Description: Cancer metastasis is a complex process that cannon be accurately modeled in vitro. Models that utilize cellular monolayers for the invasion of carcinoma cell come the closest to the situation in vivo. Two different cell monolayers, mouse mesothelium and human vascular endothelium were used to examine the role of ATX in the invasion of MM1 hepatocarcinoma cells and the reduction of such invasion by the chemical compounds of the present application. The mesothelial monolayer is an accepted model for invasion of body cavities lined by serous cells whereas, the HUVEC monolayer is considered to be an in vitro model of hematogenous invasion of carcinomas.
Highly invasive MM1 cells originally isolated from the AH130 rat hepatoma cells were utilized in these studies. The cells were grown in suspension in DMEM supplemented with 10% fetal bovine serum, 2 mM glutamine, 100 units/ml penicillin and 10 μg/ml streptoinycin. Mesothelial cells were isolated and cultured from C57BL/6 mice. Human umbilical cord vascular endothelial cells (HUVEC) were obtained from VEC Technologies Inc., (Rensselaer, N.Y., USA) and were grown in MCDB-131 complete medium containing 10% fetal bovine serum. 90 μg/ml heparin, 10 ng/ml EGF, 1 μg/ml hydrocortisone, 0.2 mg/ml EndoGrowth supplement, 100 units/ml penicillin G, 100 μg/ml streptomycin and 25 μg/ml amphotericin B (all from VEC Technologies). Tumor cell invasion was performed by seeding 1.3×10^5 HUVECs (passage 7) into each well of a 12-well plate pre-coated with 0.2% gelatin (Sigma) and cultured for 2 days to form a confluent monolayer. Mesothelial cells harvested from two-three mice were initially plated in 6-well plates and grown to confluency in DMEM medium supplemented with 10% fetal bovine serum in the presence of 100 units/ml penicillin G and 10 μg/ml streptomycin. When confluent, the mesothelial cells were split into three equal aliquots (˜5×10^4 cells each) and plated to three wells of a 12-well plate and grown to confluence.
Invasion of MM1 cells of Example 53 was determined and the effect of compounds of the present application in reducing the invasion was determined. For all invasion assays, MM1 cells were pre-stained with 2 μg/ml calcein AM (Invitrogen, USA) for 2 h, rinsed once, and seeded at a density of 5×10^4 cells/well over the monolayers. […] The number of tumor cells that penetrated the monolayer was photographed under a NIKON TiU inverted microscope using phase-contrast and fluorescence illumination in a minimum of five non-overlapping fields at 100× magnification. The fluorescent images were overlayed on top of the phase contrast images using the Elements BR software (version 3.1x) and the invaded MM1 cells showing the characteristic flattened morphology in the plane of focus underneath the monolayer were counted. […]

| SMILES | MM1 cell invasion of the mesothelial monolayer |
| --- | --- |
| CCCCCCCCCCCCCCCc1ccc(CP(=O)(O)O)cc1 [Compound 22, 4-Pentadecylbenzylphosphonic acid] | inhibited; also recorded: inhibition |
| CCCCCCCCCCC/C=C/c1ccc2cc(CP(=O)(O)O)ccc2c1 [Compound 30b, (E)-6-Tridec-1-enyl-naphthalen-2-yl-methylphosphonic acid] | inhibited |
